The record followed here is patent US20140193802A1, “IDENTIFICATION OF AN ALTERED THERAPEUTIC SUSCEPTIBILITY TO ANTI-HCMV COMPOUNDS AND OF A RESISTANCE AGAINST ANTI-HCMV COMPOUNDS” (priority 2012, published 2014).

Holding throughout (format): cell-based, human cytomegalovirus (HCMV)
Assay [1] deals with RV-HG (wt-HCMV). The assay is described as follows: HCMV fluorescence reduction assay (GFP-RA). The conditions noted are these: Human betaherpesvirus 5. How it is done:
(§1) HCMV Fluorescence Reduction Assay (GFP-RA)
(§2) The susceptibilities of recombinant HCMV laboratory strains expressing GFP were determined by a GFP-based fluorescence reduction assay. For standard assays, 1.5×10^4 NHDF cells/well were cultured in black 96-well plates (Greiner Bio-One, Germany) and infected with either HCMV-GFP (MOI, 0.1) or RV-HG (MOI, 0.2 to 0.5). After virus adsorption, the virus inoculum was replaced with 200 μl fresh medium. Thereafter, 100 μl medium containing the test compounds was added to wells of horizontal row G, followed by serial 3-fold dilutions up to row A. All drug concentrations were tested at least in duplicate. Wells of the horizontal row H served as the virus control. Plates were incubated at 37° C. for 7 days. The medium was replaced by 200 μl PBS, and GFP units (GFPU) were determined by a charge-coupled-device-camera-based fluorescence detector (FluoBox; Bayer Technology Services GmbH, Leverkusen, Germany), which captures 96 images simultaneously. Drug effects were calculated as a percentage of reduction in GFPU in the presence of each drug concentration compared to the GFPU determined in the absence of drug. EC50 and EC90 values (drug concentrations producing 50% and 90% reduction in GFPU) were calculated using nonlinear regression curve fit with a variable slope. GraphPad Prism 3.02 or 4.0 software (GraphPad Software Inc., La Jolla, Calif.) was used for all analyses.
(§3) The HCMV AD169-derived bacterial artificial chromosome (BAC) pHG served as the backbone for the construction of the mutant viruses. The markerless introduction of point mutations into pHG was done using a two-step recombination protocol according to the en passant method. Briefly, a recombination fragment containing the I-SceI-AphAI cassette from plasmid pEPKan-S was obtained by PCR using primers containing ˜60 bp of homology to the intended integration site in ORF UL56 of BAC pHG and ˜20 bp specific for pEPKan-S. This fragment was electroporated into Escherichia coli GS1783 that harbored the pHG BAC. […] After successful kanamycin selection, all non-HCMV sequences were removed by an intrabacterial ISceI digest and a subsequent second Red recombination, resulting in the scarless repair of the mutated UL56 gene in the background of BAC pHG. The integrity of the generated BACs was confirmed by restriction enzyme digestion and sequencing. To reconstitute virus mutants, the recombinant BACs were transfected into permissive MRC5 cells. At least two independent virus clones per mutation were generated and evaluated.

Assay [2] relates to RV-HG UL56-R369S. The assay is described as follows: GFP-RA, marker transfer mutant. Conditions: for EC50: Human betaherpesvirus 5, RV-HG UL56-R369S, fluorescence reduction assay, mean ± SD, read-out: EC50. How it is done:
as §1, §2, §3

For assay [3], the system named is RV-HG UL56-V231L. The assay is described as follows: GFP-RA, marker transfer mutant. Conditions: for EC50: Human betaherpesvirus 5, RV-HG UL56-V231L, fluorescence reduction assay, mean ± SD, read-out: EC50. How it is done:
as §1, §2, §3

The subject of assay [4] is RV-HG UL56-L241P/R369S. The assay is described as follows: GFP-RA, marker transfer mutant. Conditions: for EC50: Human betaherpesvirus 5, RV-HG UL56-L241P/R369S, fluorescence reduction assay, mean ± SD, read-out: EC50. How it is done:
as §1, §2, §3

Assay [5] deals with RV-HG UL56-V236M. The assay is described as follows: GFP-RA, marker transfer mutant. Conditions: for EC50: Human betaherpesvirus 5. The protocol:
as §1, §2, §3

Assay [6] has as its system RV-HG UL56-L241P. The assay is described as follows: GFP-RA, marker transfer mutant. The conditions noted are these: for EC50: Human betaherpesvirus 5. The protocol:
as §1, §2, §3

Assay [7] relates to RV-HG UL56-R369M. The assay is described as follows: GFP-RA, marker transfer mutant. Conditions: for EC50: Human betaherpesvirus 5, RV-HG UL56-R369M, fluorescence reduction assay, mean ± SD, read-out: EC50. The protocol:
as §1, §2, §3

Assay [8] deals with RV-HG UL56-C325Y. The assay is described as follows: GFP-RA, marker transfer mutant. Conditions: for EC50: Human betaherpesvirus 5. How it is done:
as §1, §2, §3

The term EC50 denotes the concentration that produces a half-maximal response.

“And” between values parts separate entries of the source, which are not always exact repeats. Equal entries are not always repeated. Where two headings read alike, the source gives them in different places.

On to `COc1cccc(N2CCN(C3=Nc4c(F)cccc4[C@H](CC(=O)O)N3c3cc(C(F)(F)F)ccc3OC)CC2)c1` [Letermovir, (S)-{8-fluoro-2-[4-(3-methoxyphenyl)-1-piperazinyl]-3-[2-methoxy-5-(trifluoromethyl)phenyl]-3,4-dihydro-4-quinazolinyl}acetic acid], for which the 50% effective concentration (EC50) in assay [1] (RV-HG (wt-HCMV), fluorescence reduction assay, mean ± SD, read-out: EC50) is 0.003 ± 0.0012 µM; in assay [2], 0.14 ± 0.07 µM; in assay [3], 0.02 ± 0.0047 µM; in assay [4] it was 5.26 µM; in assay [5] (RV-HG UL56-V236M, fluorescence reduction assay, mean ± SD, read-out: EC50) it was 0.07 ± 0.02 µM; in assay [6] (RV-HG UL56-L241P, fluorescence reduction assay, mean ± SD, read-out: EC50) it was 0.68 ± 0.24 µM. Also, the concentration for a half-maximal effect (EC50) in assay [7] stood at 0.04 ± 0.015 µM; in assay [8] (RV-HG UL56-C325Y, fluorescence reduction assay, mean ± SD, read-out: EC50), 26.4 ± 8.5 µM. Further, the “Resistance index (RI) = EC50 indicated RV-HG mutant/EC50 RV-HG wt” value in assay [2] (RV-HG UL56-R369S vs RV-HG wt) is ~38 and 48; in assay [3] (RV-HG UL56-V231L vs RV-HG wt), 5; in assay [4] (RV-HG UL56-L241P/R369S vs RV-HG wt) it was 1776; in assay [5] (RV-HG UL56-V236M vs RV-HG wt) it was 24; in assay [6] (RV-HG UL56-L241P vs RV-HG wt), ~160 and 221; in assay [7] (RV-HG UL56-R369M vs RV-HG wt), 13. For the same compound, the “Resistance index (RI) = EC50 indicated RV-HG mutant/EC50 RV-HG wt” value in assay [8] (RV-HG UL56-C325Y vs RV-HG wt) was found to be 8910.
As for `Nc1nc(O)c2ncn(COC(CO)CO)c2n1` [Ganciclovir], the EC50 in assay [1] was 2.21 ± 0.99 µM; in assay [2] it was 1.96 ± 1.09 µM; in assay [3] it was 0.72 ± 0.24 µM; in assay [4], 2.86 ± 1.16 µM; in assay [5], 1.56 ± 0.33 µM; in assay [6], 2.11 ± 0.77 µM. The results for the EC50 in assay [7] and in assay [8] were 1.26 ± 0.64 µM and 2.11 ± 0.71 µM, respectively.
